According to the supplement of paper PMC13207355:

What was measured:
Settings in all cases: exposure time: 72 h
E13 [1] = patient-derived glioblastoma stem cells of classical subtype; assay: surviving fraction (nuclei count normalised to DMSO); higher = more cells surviving (less toxic)
E21 [2] = patient-derived glioblastoma stem cells of mesenchymal subtype; assay: as above
E28 [3] = patient-derived glioblastoma stem cells of classical subtype; assay: as above
E31 [4] = patient-derived glioblastoma stem cells of proneural subtype; assay: as above
E34 [5] = patient-derived glioblastoma stem cells of proneural subtype; assay: as above
E57 [6] = patient-derived glioblastoma stem cells of mesenchymal subtype; assay: as above
FT3469 [7] = normal neural stem cell line; assay: as above
E13 [8] = assay: phenotypic distance (Euclidean, principal components) from DMSO controls (arbitrary units); higher = stronger morphological change
E21 [9] = assay: as above
E28 [10] = assay: as above
E31 [11] = assay: as above
E34 [12] = assay: as above
E57 [13] = assay: as above
FT3469 [14] = assay: as above
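For phenotypic distance (Euclidean, principal components) from DMSO controls in this document: cell Painting imaging in 384-well plates, CellProfiler features reduced to at least 20 principal components, Euclidean distance versus same-plate DMSO vehicle wells (0.1% v/v), median over six images per well.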
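For surviving fraction (nuclei count normalised to DMSO) in this document: nuclei counted by high-content imaging of Hoechst-stained cells in laminin-coated 384-well plates, relative to 0.1% DMSO vehicle wells, with staurosporine as cell-death control.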

COC(=O)Nc1nc2cc(C(=O)c3cccs3)ccc2[nH]1 [Nocodazole]
Settings | phenotypic distance | surviving fraction
E13 [1], 4.11523 nM | – | 0.286
E13 [1], 12.34567901 nM | – | 0.309
E13 [1], 37.037 nM | – | 0.238
E13 [1], 111.1111111 nM | – | 0.193
E13 [1], 333.333 nM | – | 0.228
E13 [1], 1000 nM | – | 0.186
E13 [1], 3000 nM | – | 0.178
E13 [8], 4.11523 nM | 6.13 | –
E13 [8], 12.34567901 nM | 4.73 | –
E13 [8], 37.037 nM | 5.56 | –
E13 [8], 111.1111111 nM | 6.89 | –
E13 [8], 333.333 nM | 6.42 | –
E13 [8], 1000 nM | 6.56 | –
E13 [8], 3000 nM | 9.87 | –
E21 [2], 4.11523 nM | – | 0.506
E21 [2], 12.34567901 nM | – | 0.54
E21 [2], 37.037 nM | – | 0.116
E21 [2], 111.1111111 nM | – | 0.101
E21 [2], 333.333 nM | – | 0.118
E21 [2], 1000 nM | – | 0.0883
E21 [2], 3000 nM | – | 0.083
E21 [9], 4.11523 nM | 4.87 | –
E21 [9], 12.34567901 nM | 4.76 | –
E21 [9], 37.037 nM | 8.31 | –
E21 [9], 111.1111111 nM | 9.95 | –
E21 [9], 333.333 nM | 9.8 | –
E21 [9], 1000 nM | 8.46 | –
E21 [9], 3000 nM | 9.75 | –
E28 [3], 4.11523 nM | – | 0.698
E28 [3], 12.34567901 nM | – | 0.609
E28 [3], 37.037 nM | – | 0.531
E28 [3], 111.1111111 nM | – | 0.353
E28 [3], 333.333 nM | – | 0.428
E28 [3], 1000 nM | – | 0.267
E28 [3], 3000 nM | – | 0.297
E28 [10], 4.11523 nM | 2.22 | –
E28 [10], 12.34567901 nM | 2.63 | –
E28 [10], 37.037 nM | 2.97 | –
E28 [10], 111.1111111 nM | 3.74 | –
E28 [10], 333.333 nM | 3.59 | –
E28 [10], 1000 nM | 4.6 | –
E28 [10], 3000 nM | 5.85 | –
E31 [4], 4.11523 nM | – | 0.262
E31 [4], 12.34567901 nM | – | 0.174
E31 [4], 37.037 nM | – | 0.135
E31 [4], 111.1111111 nM | – | 0.0743
E31 [4], 333.333 nM | – | 0.0743
E31 [4], 1000 nM | – | 0.058
E31 [4], 3000 nM | – | 0.0327
E31 [11], 4.11523 nM | 4.08 | –
E31 [11], 12.34567901 nM | 3.99 | –
E31 [11], 37.037 nM | 5.49 | –
E31 [11], 111.1111111 nM | 6.17 | –
E31 [11], 333.333 nM | 5.43 | –
E31 [11], 1000 nM | 11.1 | –
E31 [11], 3000 nM | 12 | –
E34 [5], 4.11523 nM | – | 0.543
E34 [5], 12.34567901 nM | – | 0.541
E34 [5], 37.037 nM | – | 0.488
E34 [5], 111.1111111 nM | – | 0.469
E34 [5], 333.333 nM | – | 0.394
E34 [5], 1000 nM | – | 0.316
E34 [5], 3000 nM | – | 0.433
E34 [12], 4.11523 nM | 3.24 | –
E34 [12], 12.34567901 nM | 3.27 | –
E34 [12], 37.037 nM | 4.43 | –
E34 [12], 111.1111111 nM | 4.49 | –
E34 [12], 333.333 nM | 5.97 | –
E34 [12], 1000 nM | 8.12 | –
E34 [12], 3000 nM | 7.56 | –
E57 [6], 4.11523 nM | – | 0.452
E57 [6], 12.34567901 nM | – | 0.418
E57 [6], 37.037 nM | – | 0.143
E57 [6], 111.1111111 nM | – | 0.067
E57 [6], 333.333 nM | – | 0.0805
E57 [6], 1000 nM | – | 0.0687
E57 [6], 3000 nM | – | 0.104
E57 [13], 4.11523 nM | 5.26 | –
E57 [13], 12.34567901 nM | 5.57 | –
E57 [13], 37.037 nM | 7.85 | –
E57 [13], 111.1111111 nM | 6.23 | –
E57 [13], 333.333 nM | 6.48 | –
E57 [13], 1000 nM | 6.95 | –
E57 [13], 3000 nM | 6.12 | –
FT3469 [7], 4.11523 nM | – | 0.562
FT3469 [7], 12.34567901 nM | – | 0.573
FT3469 [7], 37.037 nM | – | 0.619
FT3469 [7], 111.1111111 nM | – | 0.474
FT3469 [7], 333.333 nM | – | 0.582
FT3469 [7], 1000 nM | – | 0.382
FT3469 [7], 3000 nM | – | 0.353
FT3469 [14], 4.11523 nM | 3.38 | –
FT3469 [14], 12.34567901 nM | 3.38 | –
FT3469 [14], 37.037 nM | 3.11 | –
FT3469 [14], 111.1111111 nM | 2.9 | –
FT3469 [14], 333.333 nM | 3.84 | –
FT3469 [14], 1000 nM | 5.03 | –
FT3469 [14], 3000 nM | 4.79 | –

C[C@H](Cc1cc2c(c(C(N)=O)c1)N(CCCO)CC2)NCCOc1ccccc1OCC(F)(F)F [Silodosin]
Settings | phenotypic distance | surviving fraction
E13 [1], 4.1 nM | – | 0.879
E13 [1], 12.3 nM | – | 0.889
E13 [1], 37 nM | – | 0.914
E13 [1], 111.1 nM | – | 0.899
E13 [1], 333.3 nM | – | 0.859
E13 [1], 1000 nM | – | 0.9
E13 [1], 3000 nM | – | 0.93
E13 [8], 4.1 nM | 0.445 | –
E13 [8], 12.3 nM | 0.872 | –
E13 [8], 37 nM | 0.863 | –
E13 [8], 111.1 nM | 0.966 | –
E13 [8], 333.3 nM | 0.915 | –
E13 [8], 1000 nM | 0.684 | –
E13 [8], 3000 nM | 0.641 | –
E21 [2], 4.1 nM | – | 0.872
E21 [2], 12.3 nM | – | 0.94
E21 [2], 37 nM | – | 0.885
E21 [2], 111.1 nM | – | 0.958
E21 [2], 333.3 nM | – | 0.998
E21 [2], 1000 nM | – | 1.04
E21 [2], 3000 nM | – | 1.03
E21 [9], 4.1 nM | 2.39 | –
E21 [9], 12.3 nM | 1.7 | –
E21 [9], 37 nM | 1.04 | –
E21 [9], 111.1 nM | 0.791 | –
E21 [9], 333.3 nM | 0.998 | –
E21 [9], 1000 nM | 0.539 | –
E21 [9], 3000 nM | 1.04 | –
E28 [3], 4.1 nM | – | 0.896
E28 [3], 12.3 nM | – | 0.951
E28 [3], 37 nM | – | 0.935
E28 [3], 111.1 nM | – | 0.781
E28 [3], 333.3 nM | – | 0.941
E28 [3], 1000 nM | – | 0.892
E28 [3], 3000 nM | – | 0.877
E28 [10], 4.1 nM | 0.716 | –
E28 [10], 12.3 nM | 0.594 | –
E28 [10], 37 nM | 0.634 | –
E28 [10], 111.1 nM | 0.795 | –
E28 [10], 333.3 nM | 0.798 | –
E28 [10], 1000 nM | 0.495 | –
E28 [10], 3000 nM | 0.823 | –
E31 [4], 4.1 nM | – | 1.03
E31 [4], 12.3 nM | – | 0.873
E31 [4], 37 nM | – | 0.879
E31 [4], 111.1 nM | – | 0.922
E31 [4], 333.3 nM | – | 0.967
E31 [4], 1000 nM | – | 0.962
E31 [4], 3000 nM | – | 0.852
E31 [11], 4.1 nM | 0.63 | –
E31 [11], 12.3 nM | 0.581 | –
E31 [11], 37 nM | 1.01 | –
E31 [11], 111.1 nM | 0.959 | –
E31 [11], 333.3 nM | 0.426 | –
E31 [11], 1000 nM | 0.534 | –
E31 [11], 3000 nM | 1.14 | –
E34 [5], 4.1 nM | – | 0.923
E34 [5], 12.3 nM | – | 0.923
E34 [5], 37 nM | – | 0.82
E34 [5], 111.1 nM | – | 0.869
E34 [5], 333.3 nM | – | 0.932
E34 [5], 1000 nM | – | 0.863
E34 [5], 3000 nM | – | 0.802
E34 [12], 4.1 nM | 1.06 | –
E34 [12], 12.3 nM | 0.76 | –
E34 [12], 37 nM | 0.492 | –
E34 [12], 111.1 nM | 2.26 | –
E34 [12], 333.3 nM | 0.348 | –
E34 [12], 1000 nM | 1.18 | –
E34 [12], 3000 nM | 1.12 | –
E57 [6], 4.1 nM | – | 0.935
E57 [6], 12.3 nM | – | 0.844
E57 [6], 37 nM | – | 0.878
E57 [6], 111.1 nM | – | 0.843
E57 [6], 333.3 nM | – | 0.955
E57 [6], 1000 nM | – | 0.911
E57 [6], 3000 nM | – | 0.792
E57 [13], 4.1 nM | 0.807 | –
E57 [13], 12.3 nM | 1.04 | –
E57 [13], 37 nM | 0.711 | –
E57 [13], 111.1 nM | 1.62 | –
E57 [13], 333.3 nM | 0.512 | –
E57 [13], 1000 nM | 0.794 | –
E57 [13], 3000 nM | 1.7 | –
FT3469 [7], 4.1 nM | – | 0.874
FT3469 [7], 12.3 nM | – | 0.91
FT3469 [7], 37 nM | – | 1.05
FT3469 [7], 111.1 nM | – | 0.959
FT3469 [7], 333.3 nM | – | 0.939
FT3469 [7], 1000 nM | – | 0.815
FT3469 [7], 3000 nM | – | 0.925
FT3469 [14], 4.1 nM | 1.28 | –
FT3469 [14], 12.3 nM | 0.608 | –
FT3469 [14], 37 nM | 0.869 | –
FT3469 [14], 111.1 nM | 0.648 | –
FT3469 [14], 333.3 nM | 1.02 | –
FT3469 [14], 1000 nM | 0.845 | –
FT3469 [14], 3000 nM | 1.05 | –
